Results taken from ChEMBL document CHEMBL1743201, “Casarett and Doull's Toxicology The Basic Science of Poisons, 7th edition” (2008).

Tests used:
[1] = biological target: T1, Aryl hydrocarbon receptor (Homo sapiens, UniProt P35869); experiment: Aryl hydrocarbon receptor antagonist (species not specified)
T1 sequence (P35869 whole entry): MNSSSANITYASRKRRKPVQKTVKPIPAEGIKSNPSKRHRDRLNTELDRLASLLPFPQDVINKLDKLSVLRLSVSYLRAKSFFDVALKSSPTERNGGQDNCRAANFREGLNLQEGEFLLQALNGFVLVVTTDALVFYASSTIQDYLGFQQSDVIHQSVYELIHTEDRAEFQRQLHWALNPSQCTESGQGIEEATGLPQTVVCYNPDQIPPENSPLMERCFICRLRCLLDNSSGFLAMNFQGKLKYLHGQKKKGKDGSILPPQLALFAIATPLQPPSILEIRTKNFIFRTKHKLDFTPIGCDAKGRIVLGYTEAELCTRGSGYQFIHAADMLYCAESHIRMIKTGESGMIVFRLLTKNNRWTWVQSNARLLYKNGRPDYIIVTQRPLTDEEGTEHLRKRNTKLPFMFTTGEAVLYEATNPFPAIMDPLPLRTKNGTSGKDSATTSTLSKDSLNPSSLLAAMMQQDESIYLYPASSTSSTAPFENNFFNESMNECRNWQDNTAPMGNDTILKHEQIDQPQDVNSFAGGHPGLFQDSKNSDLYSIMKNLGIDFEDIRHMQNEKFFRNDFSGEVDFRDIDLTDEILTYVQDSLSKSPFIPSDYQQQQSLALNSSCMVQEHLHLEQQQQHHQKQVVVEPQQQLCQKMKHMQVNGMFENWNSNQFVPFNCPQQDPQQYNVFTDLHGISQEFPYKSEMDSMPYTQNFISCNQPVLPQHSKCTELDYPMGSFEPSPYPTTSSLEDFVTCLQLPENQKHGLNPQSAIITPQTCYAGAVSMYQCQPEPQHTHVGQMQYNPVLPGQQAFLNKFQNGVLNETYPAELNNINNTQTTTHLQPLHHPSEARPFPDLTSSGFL

Sulfotransferase 1C4 = Sulfotransferase 1C4 (Homo sapiens, UniProt O75897); experiment: Major substrate of human cytosolic sulfotransferase SULT1C4; assay type: ADME
Sulfotransferase 1C2 = Sulfotransferase 1C2 (Homo sapiens, UniProt O00338); experiment: Major substrate of human cytosolic sulfotransferase SULT1C2; assay type: ADME
Sulfotransferase 1A2 = Sulfotransferase 1A2 (Homo sapiens, UniProt P50226); experiment: Major substrate of human cytosolic sulfotransferase SULT1A2; assay type: ADME
Cytochrome P450 1A2 = biological target: T2, Cytochrome P450 1A2 (Homo sapiens, UniProt P05177); experiment: Clinically relevant inducers of human liver microsomal P450 enzymes, isoform CYP1A2; assay type: ADME; conditions: microsomes
T2 sequence (P05177 whole entry): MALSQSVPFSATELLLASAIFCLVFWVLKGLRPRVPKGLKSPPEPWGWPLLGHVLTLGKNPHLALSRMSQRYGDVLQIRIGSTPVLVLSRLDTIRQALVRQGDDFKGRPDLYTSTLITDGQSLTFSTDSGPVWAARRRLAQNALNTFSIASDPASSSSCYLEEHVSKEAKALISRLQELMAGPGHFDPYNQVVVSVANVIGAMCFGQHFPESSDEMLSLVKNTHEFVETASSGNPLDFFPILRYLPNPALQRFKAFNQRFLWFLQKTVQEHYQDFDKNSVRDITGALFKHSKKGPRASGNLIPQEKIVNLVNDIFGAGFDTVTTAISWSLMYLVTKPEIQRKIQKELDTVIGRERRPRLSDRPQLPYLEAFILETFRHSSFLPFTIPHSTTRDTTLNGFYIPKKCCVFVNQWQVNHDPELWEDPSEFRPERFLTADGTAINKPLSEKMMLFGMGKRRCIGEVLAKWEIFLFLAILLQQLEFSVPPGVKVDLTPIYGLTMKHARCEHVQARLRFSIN

[2] = biological target: T1, Aryl hydrocarbon receptor; experiment: Aryl hydrocarbon receptor agonist (species not specified)
Cytochrome P450 2E1 [3] = biological target: T3, Cytochrome P450 2E1 (Homo sapiens, UniProt P05181); experiment: Clinically relevant inducers of human liver microsomal P450 enzymes, isoform CYP2E1; assay type: ADME; conditions: microsomes
Cytochrome P450 2A6 [4] = biological target: T4, Cytochrome P450 2A6 (Homo sapiens, UniProt P11509); experiment: Clinically relevant substrates of human liver microsomal P450 enzymes, isoform CYP2A6; assay type: ADME; conditions: microsomes
T4 sequence (P11509 whole entry): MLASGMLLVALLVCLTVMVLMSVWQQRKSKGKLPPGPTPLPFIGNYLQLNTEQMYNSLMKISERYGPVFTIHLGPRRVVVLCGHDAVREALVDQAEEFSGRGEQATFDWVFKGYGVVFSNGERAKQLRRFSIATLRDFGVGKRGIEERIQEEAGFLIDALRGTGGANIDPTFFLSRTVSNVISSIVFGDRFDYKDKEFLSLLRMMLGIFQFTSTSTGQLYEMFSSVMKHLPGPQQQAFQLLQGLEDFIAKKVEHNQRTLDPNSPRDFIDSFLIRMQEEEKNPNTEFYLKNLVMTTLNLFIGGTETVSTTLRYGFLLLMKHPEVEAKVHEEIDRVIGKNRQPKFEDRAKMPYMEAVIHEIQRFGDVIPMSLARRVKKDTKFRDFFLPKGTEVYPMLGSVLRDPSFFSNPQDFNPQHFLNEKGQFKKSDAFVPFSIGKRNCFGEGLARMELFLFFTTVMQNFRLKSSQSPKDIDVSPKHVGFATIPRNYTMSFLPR

Cytochrome P450 2A6 [5] = biological target: T4, Cytochrome P450 2A6; experiment: Clinically relevant inducers of human liver microsomal P450 enzymes, isoform CYP2A6; assay type: ADME; conditions: microsomes
Cytochrome P450 2C19 [6] = biological target: T5, Cytochrome P450 2C19 (Homo sapiens, UniProt P33261); experiment: Clinically relevant substrates of human liver microsomal P450 enzymes, isoform CYP2C19; assay type: ADME; conditions: microsomes
[7] = biological target: T6, UDP-glucuronosyltransferase 1A6 (Homo sapiens, UniProt P19224); experiment: Substrate of human UDP-glucuronosyltransferase UGT1A6; assay type: ADME
T6 sequence (P19224 whole entry): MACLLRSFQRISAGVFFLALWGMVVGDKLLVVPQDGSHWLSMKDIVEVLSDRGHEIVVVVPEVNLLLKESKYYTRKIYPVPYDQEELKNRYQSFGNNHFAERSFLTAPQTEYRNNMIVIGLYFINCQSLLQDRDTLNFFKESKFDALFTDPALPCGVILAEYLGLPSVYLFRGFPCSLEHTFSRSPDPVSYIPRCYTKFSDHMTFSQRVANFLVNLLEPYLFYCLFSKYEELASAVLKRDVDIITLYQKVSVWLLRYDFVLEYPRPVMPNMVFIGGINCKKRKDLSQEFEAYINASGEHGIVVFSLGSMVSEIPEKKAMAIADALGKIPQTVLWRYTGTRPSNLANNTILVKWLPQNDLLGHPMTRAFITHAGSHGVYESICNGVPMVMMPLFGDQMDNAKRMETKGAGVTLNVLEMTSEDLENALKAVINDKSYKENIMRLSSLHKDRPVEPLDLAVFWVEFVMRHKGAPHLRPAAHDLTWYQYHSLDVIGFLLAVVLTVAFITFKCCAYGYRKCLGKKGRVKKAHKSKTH

Sulfotransferase 1A1 = Sulfotransferase 1A1 (Homo sapiens, UniProt P50225); experiment: Major substrate of human cytosolic sulfotransferase SULT1A1; assay type: ADME
Sulfotransferase 1B1 = Sulfotransferase 1B1 (Homo sapiens, UniProt O43704); experiment: Major substrate of human cytosolic sulfotransferase SULT1B1; assay type: ADME
Sulfotransferase 4A1 = biological target: T7, Sulfotransferase 4A1 (Homo sapiens, UniProt Q9BR01); experiment: Major substrate of human cytosolic sulfotransferase SULT4A1_v1; assay type: ADME
T7 sequence (Q9BR01 whole entry): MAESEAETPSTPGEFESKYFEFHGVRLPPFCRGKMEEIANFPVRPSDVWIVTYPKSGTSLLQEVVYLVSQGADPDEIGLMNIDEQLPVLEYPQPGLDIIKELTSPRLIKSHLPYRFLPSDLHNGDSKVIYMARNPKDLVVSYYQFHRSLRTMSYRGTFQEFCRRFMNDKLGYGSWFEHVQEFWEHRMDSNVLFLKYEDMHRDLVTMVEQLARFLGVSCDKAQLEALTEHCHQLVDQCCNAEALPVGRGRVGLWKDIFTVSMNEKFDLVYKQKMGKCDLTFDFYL

Cytochrome P450 2E1 [8] = biological target: T3, Cytochrome P450 2E1; experiment: Clinically relevant substrates of human liver microsomal P450 enzymes, isoform CYP2E1; assay type: ADME; conditions: microsomes
Sulfotransferase 1A3 = Sulfotransferase 1A3 (Homo sapiens, UniProt P0DMM9); experiment: Major substrate of human cytosolic sulfotransferase SULT1A3; assay type: ADME
Cytochrome P450 2B6 = biological target: T8, Cytochrome P450 2B6 (Homo sapiens, UniProt P20813); experiment: Clinically relevant inducers of human liver microsomal P450 enzymes, isoform CYP2B6; assay type: ADME; conditions: microsomes
T8 sequence (P20813 whole entry): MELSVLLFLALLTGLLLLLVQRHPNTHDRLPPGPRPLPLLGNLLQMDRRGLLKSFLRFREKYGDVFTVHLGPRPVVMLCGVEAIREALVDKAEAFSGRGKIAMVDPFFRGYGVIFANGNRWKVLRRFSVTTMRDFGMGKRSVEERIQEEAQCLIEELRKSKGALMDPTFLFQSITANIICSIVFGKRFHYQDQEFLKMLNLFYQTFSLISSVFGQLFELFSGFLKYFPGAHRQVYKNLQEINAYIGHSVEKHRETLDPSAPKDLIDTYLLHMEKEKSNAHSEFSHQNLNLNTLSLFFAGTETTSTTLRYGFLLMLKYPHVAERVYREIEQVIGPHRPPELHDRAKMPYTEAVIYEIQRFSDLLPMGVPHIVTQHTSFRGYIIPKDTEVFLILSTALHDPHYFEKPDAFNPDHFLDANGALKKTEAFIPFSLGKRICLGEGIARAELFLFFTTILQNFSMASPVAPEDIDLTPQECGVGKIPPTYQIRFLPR

Cytochrome P450 2C8 = biological target: T9, Cytochrome P450 2C8 (Homo sapiens, UniProt P10632); experiment: Clinically relevant inducers of human liver microsomal P450 enzymes, isoform CYP2C8; assay type: ADME; conditions: microsomes
T9 sequence (P10632 whole entry): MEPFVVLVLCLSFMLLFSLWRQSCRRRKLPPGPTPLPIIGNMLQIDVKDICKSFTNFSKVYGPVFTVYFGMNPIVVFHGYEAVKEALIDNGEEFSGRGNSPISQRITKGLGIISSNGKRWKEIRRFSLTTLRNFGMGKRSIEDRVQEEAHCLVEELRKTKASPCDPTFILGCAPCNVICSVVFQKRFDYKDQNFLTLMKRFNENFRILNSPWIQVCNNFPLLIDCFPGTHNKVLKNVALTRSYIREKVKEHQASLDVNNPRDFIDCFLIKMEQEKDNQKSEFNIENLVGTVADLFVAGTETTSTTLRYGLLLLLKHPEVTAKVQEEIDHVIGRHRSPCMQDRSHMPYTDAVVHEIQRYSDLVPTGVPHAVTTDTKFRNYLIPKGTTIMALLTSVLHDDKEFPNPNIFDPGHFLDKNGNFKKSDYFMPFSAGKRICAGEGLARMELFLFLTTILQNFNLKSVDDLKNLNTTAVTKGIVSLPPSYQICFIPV

Cytochrome P450 2C19 [9] = biological target: T5, Cytochrome P450 2C19; experiment: Clinically relevant inducers of human liver microsomal P450 enzymes, isoform CYP2C19; assay type: ADME; conditions: microsomes

T3 sequence (P05181 whole entry, canonical isoform): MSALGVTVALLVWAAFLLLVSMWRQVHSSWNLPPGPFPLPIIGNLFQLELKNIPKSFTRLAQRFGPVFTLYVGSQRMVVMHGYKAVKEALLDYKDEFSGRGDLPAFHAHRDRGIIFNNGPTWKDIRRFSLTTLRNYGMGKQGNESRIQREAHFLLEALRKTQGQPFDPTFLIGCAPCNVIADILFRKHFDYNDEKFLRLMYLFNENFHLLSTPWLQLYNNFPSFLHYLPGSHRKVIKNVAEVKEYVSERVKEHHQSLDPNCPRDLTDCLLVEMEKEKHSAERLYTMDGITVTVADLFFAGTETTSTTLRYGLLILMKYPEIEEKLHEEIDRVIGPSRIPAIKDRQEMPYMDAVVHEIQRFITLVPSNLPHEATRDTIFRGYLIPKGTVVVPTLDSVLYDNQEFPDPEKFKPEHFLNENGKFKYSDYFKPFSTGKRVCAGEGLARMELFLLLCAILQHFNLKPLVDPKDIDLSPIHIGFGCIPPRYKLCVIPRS
T5 sequence (P33261 whole entry, canonical isoform): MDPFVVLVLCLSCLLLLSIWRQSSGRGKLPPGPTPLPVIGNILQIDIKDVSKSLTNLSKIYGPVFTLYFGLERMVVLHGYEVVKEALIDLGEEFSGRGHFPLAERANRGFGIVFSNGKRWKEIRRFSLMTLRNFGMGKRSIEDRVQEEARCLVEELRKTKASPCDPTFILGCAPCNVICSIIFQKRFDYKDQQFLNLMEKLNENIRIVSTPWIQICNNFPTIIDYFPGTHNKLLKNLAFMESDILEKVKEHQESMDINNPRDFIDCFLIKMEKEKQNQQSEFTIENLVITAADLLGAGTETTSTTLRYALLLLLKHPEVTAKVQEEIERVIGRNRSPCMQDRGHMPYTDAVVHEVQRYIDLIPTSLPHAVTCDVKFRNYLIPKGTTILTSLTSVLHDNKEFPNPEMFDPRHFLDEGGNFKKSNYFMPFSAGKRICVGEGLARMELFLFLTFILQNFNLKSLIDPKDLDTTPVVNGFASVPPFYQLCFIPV
Chain of Sulfotransferase 1A2 (P50226 whole entry, canonical isoform): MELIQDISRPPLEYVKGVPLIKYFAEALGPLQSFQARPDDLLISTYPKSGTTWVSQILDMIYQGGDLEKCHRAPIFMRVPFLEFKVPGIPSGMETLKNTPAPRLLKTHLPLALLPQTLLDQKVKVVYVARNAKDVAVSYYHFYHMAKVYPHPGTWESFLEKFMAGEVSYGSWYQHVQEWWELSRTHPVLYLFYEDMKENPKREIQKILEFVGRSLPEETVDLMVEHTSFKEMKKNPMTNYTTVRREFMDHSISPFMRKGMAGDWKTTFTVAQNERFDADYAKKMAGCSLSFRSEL
Chain of Sulfotransferase 1C4 (O75897 whole entry): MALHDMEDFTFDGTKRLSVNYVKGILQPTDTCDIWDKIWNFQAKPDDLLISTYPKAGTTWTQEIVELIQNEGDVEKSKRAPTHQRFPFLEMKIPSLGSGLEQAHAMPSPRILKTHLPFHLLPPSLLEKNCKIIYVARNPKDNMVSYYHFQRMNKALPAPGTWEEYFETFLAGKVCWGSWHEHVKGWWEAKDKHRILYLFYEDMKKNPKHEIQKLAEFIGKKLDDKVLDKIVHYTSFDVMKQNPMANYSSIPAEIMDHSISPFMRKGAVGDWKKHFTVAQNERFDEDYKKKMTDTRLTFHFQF
Chain of Sulfotransferase 1C2 (O00338 whole entry): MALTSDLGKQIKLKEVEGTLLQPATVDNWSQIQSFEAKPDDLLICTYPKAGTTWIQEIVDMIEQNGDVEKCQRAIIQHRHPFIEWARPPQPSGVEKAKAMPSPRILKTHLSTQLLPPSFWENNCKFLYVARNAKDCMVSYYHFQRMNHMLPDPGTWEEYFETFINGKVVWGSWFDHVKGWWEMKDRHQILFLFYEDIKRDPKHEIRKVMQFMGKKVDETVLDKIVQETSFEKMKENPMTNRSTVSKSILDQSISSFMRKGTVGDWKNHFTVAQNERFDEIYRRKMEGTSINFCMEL
Chain of Sulfotransferase 1B1 (O43704 whole entry): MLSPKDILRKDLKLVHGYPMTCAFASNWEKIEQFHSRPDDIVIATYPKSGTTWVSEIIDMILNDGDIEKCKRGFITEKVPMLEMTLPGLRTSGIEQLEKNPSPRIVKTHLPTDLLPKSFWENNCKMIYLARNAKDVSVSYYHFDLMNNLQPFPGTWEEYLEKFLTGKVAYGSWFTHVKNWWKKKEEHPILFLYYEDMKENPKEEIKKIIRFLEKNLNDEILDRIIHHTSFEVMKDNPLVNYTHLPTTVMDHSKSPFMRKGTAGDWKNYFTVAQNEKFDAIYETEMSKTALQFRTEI
Chain of Sulfotransferase 1A1 (P50225 whole entry): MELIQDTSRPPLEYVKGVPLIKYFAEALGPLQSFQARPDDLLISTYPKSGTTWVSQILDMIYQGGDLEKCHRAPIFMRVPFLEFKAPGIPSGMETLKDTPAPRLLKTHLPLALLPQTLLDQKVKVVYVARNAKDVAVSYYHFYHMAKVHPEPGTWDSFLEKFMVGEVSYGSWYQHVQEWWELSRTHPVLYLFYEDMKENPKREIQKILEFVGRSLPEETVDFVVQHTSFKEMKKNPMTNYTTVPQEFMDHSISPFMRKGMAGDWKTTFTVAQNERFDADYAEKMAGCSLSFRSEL
Chain of Sulfotransferase 1A3 (P0DMM9 whole entry, canonical isoform): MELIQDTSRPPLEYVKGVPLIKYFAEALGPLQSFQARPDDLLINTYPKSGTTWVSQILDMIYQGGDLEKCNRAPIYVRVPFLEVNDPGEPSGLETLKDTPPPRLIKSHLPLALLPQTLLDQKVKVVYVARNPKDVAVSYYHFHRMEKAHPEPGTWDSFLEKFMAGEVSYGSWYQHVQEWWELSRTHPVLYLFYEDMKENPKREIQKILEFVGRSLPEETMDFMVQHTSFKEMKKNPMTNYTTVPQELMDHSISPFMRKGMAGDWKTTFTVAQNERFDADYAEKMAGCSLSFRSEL

## Cc1ccccc1/N=N/c1ccc(NC(=O)c2ccnn2C)c(C)c1
[1]
  Activity: antagonist

## CC(=O)N(O)c1ccc2c(c1)Cc1ccccc1-2
Sulfotransferase 1C4
  Activity: Substrate
Sulfotransferase 1C2
  Activity: Substrate
Sulfotransferase 1A2
  Activity: Substrate

## Clc1cc2c(cc1Cl)Oc1cc(Cl)c(Cl)cc1O2 [2,3,7,8-TETRACHLORODIBENZO-P-DIOXIN]
Cytochrome P450 1A2
  Activity: Inducer
[2]
  Activity: agonist

## CCO [ALCOHOL]
Cytochrome P450 2E1 [3]
  Activity: Inducer

## O=c1ccc2ccccc2o1 [COUMARIN]
Cytochrome P450 2A6 [4]
  Activity: Substrate

## C[C@@H]1C[C@H]2[C@@H]3CCC4=CC(=O)C=C[C@]4(C)[C@@]3(F)[C@@H](O)C[C@]2(C)[C@@]1(O)C(=O)CO [DEXAMETHASONE]
Cytochrome P450 2A6 [5]
  Activity: Inducer

## NNC(=O)c1ccncc1 [ISONIAZID]
Cytochrome P450 2E1 [3]
  Activity: Inducer

## CN1CCC[C@H]1c1cccnc1 [NICOTINE]
Cytochrome P450 2A6 [4]
  Activity: Substrate

## COc1ccc2[nH]c([S+]([O-])Cc3ncc(C)c(OC)c3C)nc2c1 (stereo not drawn) [OMEPRAZOLE]
Cytochrome P450 1A2
  Activity: Inducer
Cytochrome P450 2C19 [6]
  Activity: Substrate
[2]
  Activity: agonist

## O=[N+]([O-])c1ccc(O)cc1 [P-NITROPHENOL]
Sulfotransferase 1C4
  Activity: Substrate
Sulfotransferase 1C2
  Activity: Substrate
[7]
  Activity: Substrate
Sulfotransferase 1A2
  Activity: Substrate
Sulfotransferase 1A1
  Activity: Substrate
Sulfotransferase 1B1
  Activity: Substrate
Sulfotransferase 4A1
  Activity: Substrate
Cytochrome P450 2E1 [8]
  Activity: Substrate
Sulfotransferase 1A3
  Activity: Substrate

## c1cn[nH]c1 [PYRAZOLE]
Cytochrome P450 2A6 [5]
  Activity: Inducer

## CO[C@H]1/C=C/O[C@@]2(C)Oc3c(C)c(O)c4c(O)c(c(/C=N/N5CCN(C)CC5)c(O)c4c3C2=O)NC(=O)/C(C)=C\C=C\[C@H](C)[C@H](O)[C@@H](C)[C@@H](O)[C@@H](C)[C@H](OC(C)=O)[C@@H]1C [RIFAMPIN]
Cytochrome P450 2B6
  Activity: Inducer
Cytochrome P450 2C8
  Activity: Inducer
Cytochrome P450 2C19 [9]
  Activity: Inducer

## COc1ccc2[nH]c(SCc3ncc(C)c(OC)c3C)nc2c1 [UFIPRAZOLE]
[1]
  Activity: antagonist
